Assay: Solubility in water and organic solvents
Type: physicochemical

O=C(O)CCCCN(CCc1ccccc1OCc1ccc(CCc2ccccc2)cc1)Cc1ccc(C(=O)O)cc1 [Cinaciguat, 4-[((4-carboxybutyl)-{2-[(4-phenethylbenzyl)oxy]phenethyl}amino)methyl]benzoic acid]
solubility in acetone: slightly soluble | solubility in ethanol, methanol, ethyl acetate: very slightly soluble | solubility in water and dichloromethane, acetonitrile: practically insoluble
